Marks after values point to notes of the source that are not given here.
What was measured:
Breast cancer cell MCF-7 = test: Preliminary cytotoxicity test; assay type: cell-based, human
[1] = test system: Non-small cell Lung cancer cell NCI-H460; test: Preliminary cytotoxicity test; assay type: cell-based, human
CNS cancer cell SF-268 = test: Preliminary cytotoxicity test; assay type: cell-based, human
K-562 = conditions: Table 4; for CC50: read-out: LC50 K-562; for GI50: read-out: GI50 K-562
NCI-H23 = conditions: read-out: GI50 NCI-H23; Table 4
NCI-H522 = conditions: Table 4; for CC50: read-out: LC50 NCI-H522; for GI50: read-out: GI50 NCI-H522
KM12 = conditions: Table 4; for CC50: read-out: LC50 KM12
SW-620 = conditions: Table 4; for GI50: read-out: GI50 SW-620; for CC50: read-out: LC50 SW-620
SF-295 = conditions: Table 4; for GI50: read-out: GI50 SF-295; for CC50: read-out: LC50 SF-295
U251 = conditions: Table 4; for CC50: read-out: LC50 U251; for GI50: read-out: GI50 U251
SK-MEL-5 = conditions: Table 4; for GI50: read-out: GI50 SK-MEL-5; for CC50: read-out: LC50 SK-MEL-5
UACC-82 = conditions: read-out: GI50 UACC-82; Table 4
IGROV1 = conditions: Table 4; for GI50: read-out: GI50 IGROV1; for CC50: read-out: LC50 IGROV1
CAKI-1 = conditions: Table 4; for GI50: read-out: GI50 CAKI-1; for CC50: read-out: LC50 CAKI-1
SN12C = conditions: read-out: GI50 SN12C; Table 4
PC-3 = conditions: read-out: GI50 PC-3; Table 4
NCI/ADR-RES = conditions: Table 4; for GI50: read-out: GI50 NCI/ADR-RES; for CC50: read-out: LC50 NCI/ADR-RES
SR = test: NCI full panel screen; conditions: Table 4; for CC50: read-out: LC50 SR; for GI50: read-out: GI50 SR
OVCAR-3 = test: NCI full panel screen; conditions: Homo sapiens; for GI50: OVCAR-3, read-out: GI50 OVCAR-3; for CC50: OVCAR-3, read-out: LC50 OVCAR-3
DU-145 = test: NCI full panel screen; conditions: Table 4; for CC50: read-out: LC50 DU-145; for GI50: read-out: GI50 DU-145
Leukemia cell lines = test: NCI full panel screen, panel average; conditions: Homo sapiens, read-out: cytotoxicity, average of all Leukemia cell lines
[2] = test system: Non-Small Cell Lung Cancer cell lines; test: NCI full panel screen, panel average; conditions: Homo sapiens, read-out: cytotoxicity, average of all Non-Small Cell Lung Cancer cell lines
Colon Cancer cell lines = test: NCI full panel screen, panel average; conditions: Homo sapiens, read-out: cytotoxicity, average of all Colon Cancer cell lines
CNS Cancer cell lines = test: NCI full panel screen, panel average; conditions: Homo sapiens, read-out: cytotoxicity, average of all CNS Cancer cell lines
Melanoma cell lines = test: NCI full panel screen, panel average; conditions: Homo sapiens, read-out: cytotoxicity, average of all Melanoma cell lines
[3] = test system: Ovarian Cancer cell lines; test: NCI full panel screen, panel average; conditions: Homo sapiens, read-out: cytotoxicity, average of all Ovarian Cancer cell lines
Renal Cancer cell lines = test: NCI full panel screen, panel average; conditions: Homo sapiens, read-out: cytotoxicity, average of all Renal Cancer cell lines
[4] = test system: Prostate Cancer cell lines; test: NCI full panel screen, panel average; conditions: Homo sapiens, read-out: cytotoxicity, average of all Prostate Cancer cell lines
Breast Cancer cell lines = test: NCI full panel screen, panel average; conditions: Homo sapiens, read-out: cytotoxicity, average of all Breast Cancer cell lines
MDA-MB-435 = conditions: read-out: GI50 MDA-MB-435; Table 4

Structure (SMILES): N#Cc1ccccc1C#CC=CC#Cc1ccccn1 [Compound 27, 2-(6-(2-pyridinyl)-3-hexen-1,5-diynyl)benzonitrile]
- Growth percentage, Breast cancer cell MCF-7 (Breast cancer cell MCF-7): 49%
- Growth percentage, Non-small cell Lung cancer cell NCI-H460 [1]: 23* %
- Growth percentage, CNS cancer cell SF-268 (CNS cancer cell SF-268): 83%
- CC50 (K-562): > 100 µM
- GI50 (NCI-H23): 12.3 µM
- CC50 (NCI-H522): 84.7 µM
- CC50 (KM12): 80.4 µM
- GI50 (SW-620): 12.6 µM
- CC50 (SW-620): 80.5 µM
- GI50 (SF-295): 20.1 µM
- CC50 (SF-295): > 100 µM
- CC50 (U251): 79 µM
- GI50 (SK-MEL-5): 2.99 µM
- CC50 (SK-MEL-5): 41.6 µM
- GI50 (UACC-82): 15.3 µM
- GI50 (IGROV1): 17 µM
- CC50 (IGROV1): 79.1 µM
- GI50 (CAKI-1): 21.8 µM
- CC50 (CAKI-1): > 100 µM
- GI50 (SN12C): 20.4 µM
- GI50 (PC-3): 13.7 µM
- GI50 (NCI/ADR-RES): 16.5 µM
- CC50 (NCI/ADR-RES): 71 µM
- CC50 (SR): > 100 µM
- GI50 (OVCAR-3): 4.26 µM
- CC50 (OVCAR-3): 56.9 µM
- CC50 (DU-145): > 100 µM
- IC50 (Leukemia cell lines): 12.8 µM
- IC50 [2]: 19.6 µM
- IC50 (Colon Cancer cell lines): 16.3 µM
- IC50 (CNS Cancer cell lines): 20.9 µM
- IC50 (Melanoma cell lines): 14.2 µM
- IC50 [3]: 27.3 µM
- IC50 (Renal Cancer cell lines): 21.7 µM
- IC50 [4]: 21.2 µM
- IC50 (Breast Cancer cell lines): 14.3 µM

Structure (SMILES): N#Cc1ccccc1C#CC=CC#Cc1cnccn1 [Compound 30, 2-(6-(2-pyrazinyl)-3-hexen-1,5-diynyl)benzonitrile]
- Growth percentage, Breast cancer cell MCF-7 (Breast cancer cell MCF-7): 73%
- Growth percentage, Non-small cell Lung cancer cell NCI-H460 [1]: 8* %
- Growth percentage, CNS cancer cell SF-268 (CNS cancer cell SF-268): 84%
- GI50 (K-562): 4.88 µM
- CC50 (K-562): > 100 µM
- GI50 (NCI-H23): 15.9 µM
- GI50 (NCI-H522): 14.8 µM
- CC50 (NCI-H522): > 100 µM
- GI50 (KM12; read-out: GI50 KM12): 4.39 µM
- CC50 (KM12): > 100 µM
- GI50 (SW-620): 6.98 µM
- CC50 (SW-620): > 100 µM
- GI50 (SF-295): 17.6 µM
- CC50 (SF-295): > 100 µM
- GI50 (U251): 36.1 µM
- CC50 (U251): > 100 µM
- GI50 (SK-MEL-5): 19.6 µM
- CC50 (SK-MEL-5): > 100 µM
- GI50 (IGROV1): 46.2 µM
- CC50 (IGROV1): > 100 µM
- GI50 (CAKI-1): 21.6 µM
- CC50 (CAKI-1): > 100 µM
- GI50 (SN12C): 22.6 µM
- GI50 (PC-3): 30.9 µM
- GI50 (NCI/ADR-RES): 15.9 µM
- CC50 (NCI/ADR-RES): > 100 µM
- GI50 (MDA-MB-435): 5.3 µM
- GI50 (SR): 4.3 µM
- CC50 (SR): > 100 µM
- GI50 (OVCAR-3): 16.6 µM
- CC50 (OVCAR-3): > 100 µM
- GI50 (DU-145): 36.3 µM
- CC50 (DU-145): > 100 µM
- IC50 (Leukemia cell lines): 5.05 µM
- IC50 [2]: 11.8 µM
- IC50 (Colon Cancer cell lines): 7.54 µM
- IC50 (CNS Cancer cell lines): 32.2 µM
- IC50 (Melanoma cell lines): 18.7 µM
- IC50 [3]: 38.1 µM
- IC50 (Renal Cancer cell lines): 27 µM
- IC50 [4]: 33.6 µM
- IC50 (Breast Cancer cell lines): 33.3 µM

Structure (SMILES): N#Cc1ccccc1C#CC=CC#Cc1ccccc1N [Compound 32, 2-[6-(o-anilinyl)-3-hexen-1,5-diynyl]benzonitrile]
- Growth percentage, Breast cancer cell MCF-7 (Breast cancer cell MCF-7): 36%
- Growth percentage, Non-small cell Lung cancer cell NCI-H460 [1]: 8* %
- Growth percentage, CNS cancer cell SF-268 (CNS cancer cell SF-268): 27* %
- GI50 (K-562): 0.48 µM
- CC50 (K-562): > 100 µM
- GI50 (NCI-H23): 0.8 µM
- GI50 (NCI-H522): 0.3 µM
- CC50 (NCI-H522): 8.62 µM
- CC50 (KM12): > 100 µM
- GI50 (SW-620): 0.39 µM
- CC50 (SW-620): > 100 µM
- GI50 (SF-295): 0.24 µM
- CC50 (SF-295): 12.4 µM
- GI50 (U251): 0.43 µM
- CC50 (U251): > 100 µM
- GI50 (SK-MEL-5): 0.44 µM
- CC50 (SK-MEL-5): 33.1 µM
- GI50 (UACC-82): 0.37 µM
- GI50 (IGROV1): 0.27 µM
- CC50 (IGROV1): > 100 µM
- GI50 (CAKI-1): 0.13 µM
- CC50 (CAKI-1): 35.9 µM
- GI50 (SN12C): 0.41 µM
- GI50 (PC-3): 2.78 µM
- GI50 (NCI/ADR-RES): 0.37 µM
- CC50 (NCI/ADR-RES): > 100 µM
- GI50 (MDA-MB-435): 0.11 µM
- GI50 (SR): 0.25 µM
- CC50 (SR): > 100 µM
- GI50 (OVCAR-3): 0.17 µM
- CC50 (OVCAR-3): 98.4 µM
- GI50 (DU-145): 3.48 µM
- CC50 (DU-145): > 100 µM
- IC50 (Leukemia cell lines): 0.43 µM
- IC50 [2]: 1.7 µM
- IC50 (Colon Cancer cell lines): 0.47 µM
- IC50 (CNS Cancer cell lines): 9.44 µM
- IC50 (Melanoma cell lines): 0.77 µM
- IC50 [3]: 1.55 µM
- IC50 (Renal Cancer cell lines): 0.66 µM
- IC50 [4]: 3.13 µM
- IC50 (Breast Cancer cell lines): 2 µM

From patent US20050004211A1, “Pharmaceutical compositions comprising aryl-substituted acyclic enediyne compounds” (KAOHSIUNG MEDICAL UNIVERSITY, priority 2003, published 2005)
